Reference: patent US8927717B1, “Thiochromeno[2,3-c]quinolin-12-one derivatives, preparation method and application thereof” (National Defense Medical Center, priority 2014, dated 2015)

How the values were obtained:
MDA-MB-486 = type: cell-based; conditions: Breast cancer; 10^−5 molar; 48 hours; SRB
TK-10 = type: cell-based; conditions: Renal cancer; 10^−5 molar; 48 hours; SRB
NCI-H226 = type: cell-based; conditions: Non-small cell lung cancer; 10^−5 molar; 48 hours; SRB
SK-MEL-28 = type: cell-based; conditions: Melanoma; 10^−5 molar; 48 hours; SRB
CAKI-1 = type: cell-based; conditions: Renal cancer; 10^−5 molar; 48 hours; SRB
HOP-62 = type: cell-based; conditions: Non-small cell lung cancer; 10^−5 molar; 48 hours; SRB
SK-MEL-2 = type: cell-based; conditions: Melanoma; 10^−5 molar; 48 hours; SRB
U251 = type: cell-based; conditions: CNS cancer; 10^−5 molar; 48 hours; SRB
MOLT-4 = type: cell-based; conditions: Leukemia; 10^−5 molar; 48 hours; SRB
OVCAR-5 = type: cell-based; conditions: Ovarian cancer; 10^−5 molar; 48 hours; SRB
SN12C = type: cell-based; conditions: Renal cancer; 10^−5 molar; 48 hours; SRB
SW-620 = type: cell-based; conditions: Colon cancer; 10^−5 molar; 48 hours; SRB
SF-268 = type: cell-based; conditions: CNS cancer; 10^−5 molar; 48 hours; SRB
UO-31 = type: cell-based; conditions: Renal cancer; 10^−5 molar; 48 hours; SRB
SR = type: cell-based; conditions: Leukemia; 10^−5 molar; 48 hours; SRB
60 cancer cell lines = assay: NCI 60-cell screen, SRB, whole panel (mean, delta, range); type: cell-based; conditions: 10^−5 molar, 48 hours, SRB
NCI-H460 = type: cell-based; conditions: Non-small cell lung cancer; 10^−5 molar; 48 hours; SRB
SF-539 = type: cell-based; conditions: CNS cancer; 10^−5 molar; 48 hours; SRB
KM12 = assay: cells; type: cell-based; conditions: Colon cancer; 10^−5 molar; 48 hours; SRB
ACHN = type: cell-based; conditions: Renal cancer; 10^−5 molar; 48 hours; SRB
SNB-19 = type: cell-based; conditions: CNS cancer; 10^−5 molar; 48 hours; SRB
SK-MEL-5 = type: cell-based; conditions: Melanoma; 10^−5 molar; 48 hours; SRB
RXF 393 = type: cell-based; conditions: Renal cancer; 10^−5 molar; 48 hours; SRB
OVCAR-8 = type: cell-based; conditions: Ovarian cancer; 10^−5 molar; 48 hours; SRB
DU-145 = type: cell-based; conditions: Prostate cancer; 10^−5 molar; 48 hours; SRB
NCI/ADR-RES = type: cell-based; conditions: Ovarian cancer; 10^−5 molar; 48 hours; SRB
MCF7 = type: cell-based; conditions: Breast cancer; 10^−5 molar; 48 hours; SRB
HCC-2998 = type: cell-based; conditions: Colon cancer; 10^−5 molar; 48 hours; SRB
HT29 = type: cell-based; conditions: Colon cancer; 10^−5 molar; 48 hours; SRB
CCRF-CEM = type: cell-based; conditions: Leukemia; 10^−5 molar; 48 hours; SRB
HL-60(TB) = type: cell-based; conditions: Leukemia; 10^−5 molar; 48 hours; SRB
NCI-H522 = type: cell-based; conditions: Non-small cell lung cancer; 10^−5 molar; 48 hours; SRB
HCT-15 = type: cell-based; conditions: Colon cancer; 10^−5 molar; 48 hours; SRB
786-0 = type: cell-based; conditions: Renal cancer; 10^−5 molar; 48 hours; SRB
IGROV1 = type: cell-based; conditions: Ovarian cancer; 10^−5 molar; 48 hours; SRB
MDA-MB-435 = type: cell-based; conditions: Melanoma; 10^−5 molar; 48 hours; SRB
PC-3 = type: cell-based; conditions: Prostate cancer; 10^−5 molar; 48 hours; SRB
M14 = type: cell-based; conditions: Melanoma; 10^−5 molar; 48 hours; SRB
SNB-75 = type: cell-based; conditions: CNS cancer; 10^−5 molar; 48 hours; SRB
SF-295 = type: cell-based; conditions: CNS cancer; 10^−5 molar; 48 hours; SRB
LOX IMVI = type: cell-based; conditions: Melanoma; 10^−5 molar; 48 hours; SRB
HCT-116 = type: cell-based; conditions: Colon cancer; 10^−5 molar; 48 hours; SRB
K-562 = type: cell-based; conditions: Leukemia; 10^−5 molar; 48 hours; SRB
UACC-62 = type: cell-based; conditions: Melanoma; 10^−5 molar; 48 hours; SRB
HS 578T = type: cell-based; conditions: Breast cancer; 10^−5 molar; 48 hours; SRB
A498 = type: cell-based; conditions: Renal cancer; 10^−5 molar; 48 hours; SRB
A549/ATCC = type: cell-based; conditions: Non-small cell lung cancer; 10^−5 molar; 48 hours; SRB
NCI-H23 = type: cell-based; conditions: Non-small cell lung cancer; 10^−5 molar; 48 hours; SRB
OVCAR-4 = type: cell-based; conditions: Ovarian cancer; 10^−5 molar; 48 hours; SRB
RPMI-8226 = type: cell-based; conditions: Leukemia; 10^−5 molar; 48 hours; SRB
T-47D = type: cell-based; conditions: Breast cancer; 10^−5 molar; 48 hours; SRB
BT-549 = type: cell-based; conditions: Breast cancer; 10^−5 molar; 48 hours; SRB
COLO 205 = type: cell-based; conditions: Colon cancer; 10^−5 molar; 48 hours; SRB
MALME-3M = type: cell-based; conditions: Melanoma; 10^−5 molar; 48 hours; SRB
MDA-MB-231/ATCC = type: cell-based; conditions: Breast cancer; 10^−5 molar; 48 hours; SRB
SK-OV-3 = type: cell-based; conditions: Ovarian cancer; 10^−5 molar; 48 hours; SRB
UACC-257 = type: cell-based; conditions: Melanoma; 10^−5 molar; 48 hours; SRB
HOP-92 = type: cell-based; conditions: Non-small cell lung cancer; 10^−5 molar; 48 hours; SRB

CNc1nc2ccccc2c2c(=O)c3cc(Cl)ccc3sc12 [Compound N1, 10-Chloro-6-methylamino-12H-thiochromeno[2,3-c]quinolin-12-one]
Growth percent MDA-MB-486 (MDA-MB-486): 8.75%
Growth percent TK-10 (TK-10): 81.21%
Growth percent NCI-H226 (NCI-H226): 73.53%
melting point: 237 to 238 °C
Growth percent SK-MEL-28 (SK-MEL-28): 83.41%
Growth percent CAKI-1 (CAKI-1): 68.09%
Growth percent HOP-62 (HOP-62): 79.39%
Growth percent SK-MEL-2 (SK-MEL-2): 110.10%
Growth percent U251 (U251): 85.19%
Growth percent MOLT-4 (MOLT-4): 86.86%
Growth percent OVCAR-5 (OVCAR-5): 86.91%
Growth percent SN12C (SN12C): 92.52%
Growth percent SW-620 (SW-620): 84.37%
Growth percent SF-268 (SF-268): 70.58%
Growth percent UO-31 (UO-31): 65.34%
Growth percent SR (SR): 47.76%
Growth percent, Delta (60 cancer cell lines; delta over the cell panel): 66.31%
Growth percent, Mean (60 cancer cell lines; mean over the cell panel): 75.06%
Growth percent, Range (60 cancer cell lines; range over the cell panel): 122.91%
Growth percent NCI-H460 (NCI-H460): 73.84%
Growth percent SF-539 (SF-539): 59.86%
Growth percent KM12 (KM12): 68.75%
Growth percent ACHN (ACHN): 84.47%
Growth percent SNB-19 (SNB-19): 96.48%
Growth percent SK-MEL-5 (SK-MEL-5): 80.13%
Growth percent RXF 393 (RXF 393): 84.52%
Growth percent OVCAR-8 (OVCAR-8): 31.61%
Growth percent DU-145 (DU-145): 80.29%
Growth percent NCI/ADR-RES (NCI/ADR-RES): 70.95%
Growth percent MCF7 (Table 2: MCF) (MCF7): 23.26%
Growth percent HCC-2998 (HCC-2998): 105.34%
Growth percent HT29 (HT29): 114.79%
Growth percent CCRF-CEM (CCRF-CEM): 79.77%
Growth percent HL-60(TB) (HL-60(TB)): 131.66%
Growth percent NCI-H522 (NCI-H522): 97.00%
Growth percent HCT-15 (HCT-15): 68.73%
Growth percent 786-0 (786-0): 95.51%
Growth percent IGROV1 (IGROV1): 67.97%
Growth percent MDA-MB-435 (MDA-MB-435): 84.97%
Growth percent PC-3 (PC-3): 61.41%
Growth percent M14 (M14): 105.85%
Growth percent SNB-75 (SNB-75): 67.29%
Growth percent SF-295 (SF-295): 89.04%
Growth percent LOX IMVI (LOX IMVI): 44.95%
Growth percent HCT-116 (HCT-116): 32.49%
Growth percent K-562 (K-562): 40.69%
Growth percent UACC-62 (UACC-62): 77.66%
Growth percent HS 578T (HS 578T): 82.63%
Growth percent A498 (A498): 82.89%
Growth percent A549/ATCC (A549/ATCC): 51.68%
Growth percent NCI-H23 (NCI-H23): 44.39%
Growth percent OVCAR-4 (OVCAR-4): 71.33%
Growth percent RPMI-8226 (RPMI-8226): 93.10%
Growth percent T-47D (T-47D): 42.13%
Growth percent BT-549 (BT-549): 108.49%
Growth percent COLO 205 (COLO 205): 94.82%
Growth percent MALME-3M (MALME-3M): 72.46%
Growth percent MDA-MB-231/ATCC (MDA-MB-231/ATCC): 66.58%
Growth percent SK-OV-3 (SK-OV-3): 88.67%
Growth percent UACC-257 (UACC-257): 91.23%
Growth percent HOP-92 (HOP-92): 59.15%
